Earlier results as cited in patent publication US4760029A, “Assay for D-1 antagonistic activity of neuroleptic drugs” (Schering Corporation, priority 1984, dated 1988).

How the values were obtained:
D-2 sites = settings: J. Pharmacol. Exp. Ther., 226, 462 (1983)
[1] = J. Pharmacol. Exp. Ther., 226, 462 (1983)
[2] = system: dopamine stimulated adenylate cyclase; settings: J. Pharmacol. Exp. Ther., 226, 462 (1983)
D-1 sites = settings: Eur. J. Pharmacol. 91, 153(1983)

CN1CCc2cc(Cl)c(O)cc2[C@@H](c2ccccc2)C1 [Compound, R-(+)-8-chloro-2,3,4,5-tetrahydro-3-methyl-5-phenyl-1H-3-benzazepin-7-ol]
displacement of ^3 H-spiperone binding (D-2 sites): weak displacement
prolactinemia [1]: no prolactinemia
blockade of dopamine stimulated adenylate cyclase [2]: potent blockade
ability to inhibit ^3 H-cis-(Z)-piflutixol binding (D-1 sites): very potent
